This note sets out measurements from US12109204B2, “Methods for treating muscular dystrophies” (The Regents of the University of California, priority 2018, dated 2024).

What all share (type): cell-based, murine
Assay [1] relates to hSSPN-EGFP myotubes (human sarcospan promoter reporter in C2C12). Kind of assay: hSSPN-EGFP reporter myotube assay (high-content imaging). The method, then:
C2C12 immortalized murine myoblasts cultured in growth media consisting of DMEM (Gibco) with 20% Fetal Bovine Serum (Sigma-Aldrich) at 37° C. with 5% CO2 were transfected with the hSSPN-EGFP or hSSPN-Luciferase linearized plasmids using Lipofectamine 3000 Transfection Reagent (Thermo Fisher Scientific). Transfected cells were selected using 800 μg/ml of G418 (Sigma-Aldrich) for 4 weeks to generate stable cell lines expressing reporter protein under control of the human SSPN promoter.
hSSPN-EGFP myoblasts were seeded at 500 cells per well in 50 μl of growth media in 384-well black, clear bottom microplates (Greiner) using a Multidrop 384 (Thermo Fisher Scientific) and incubated for 3 days. Upon reaching confluency, the growth media was replaced with 50 μl of differentiation media consisting of DMEM with 2% horse serum (Sigma-Aldrich) using an EL406 combination washer dispenser (Biotek). At day 2 of differentiation, the media on the cells was aspirated, left with a residual volume of 10 μl, and replaced with 30 μl of fresh differentiation media. 0.5 μl of small molecule in DMSO or DMSO alone (for vehicle and positive control wells) was added to each well using a Biomek Fx (Beckman). To ensure proper mixing of the DMSO, 50 μl of additional differentiation media was added to all wells except the positive control treated wells, which instead received 50 μl of media containing insulin transferrin selenium (ITS, Gibco) to reach a final concentration of 1% ITS. The final concentration of drug in each treated well was 5.5 μM in 0.55% DMSO and 0.55% DMSO for vehicle and positive control treated wells. After 48 hours of incubation, the media was replaced with Fluorobrite DMEM (Gibco) and each plate was imaged using ImageXpress Micro Confocal High Content Imaging System (Molecular Devices). The fluorescent intensity of imaged cells was determined using MetaXpress Analysis software (Molecular Devices). Analysis setting were as follows: top hat (size: 12, filter shape: circle), adaptive threshold (source: top hat, minimum width: 10, maximum width: 800, intensity above local background: 500), filter mask (filter type: minimum area filter, minimum value: 500). […]

Another assay concerns SSPN, sarcospan. Kind of assay: SSPN gene expression by qPCR in mdx myotubes. The conditions noted are these: for SSPN gene expression over vehicle: 1-10 μM, 48 hours, normalized to β-actin (FIG. 10d). The method, then:
RNA from myotubes treated for 48 hours was extracted from cells using Trizol-based (Thermo Fisher Scientific) phase separation. RNA concentrations were determined using a NanoDrop 1000 (Thermo Fisher Scientific) and 750 ng of RNA in a 20 μl reaction was reverse transcribed using iScript cDNA synthesis (Bio-Rad) with the following cycling conditions: 25° C. for 5 minutes, 42° C. for 30 minutes, 85° C. for 5 minutes. For quantitative PCR, SsoFast EvaGreen Supermix (Bio-Rad), 400 nM of each optimized forward and reverse primer (for primer descriptions see Table 1), and cDNA corresponding to 37.5 ng RNA were used to amplify cDNA measured by Applied Biosystems 7300 (Thermo Fisher Scientific) with the following reaction conditions: 55° C. for 2 minutes, 95° C. for 2 minutes, 40 cycles of 95° C. for 10 seconds and 62° C. for 30 seconds, and dissociation stage. Each sample was run in triplicate. Data was analyzed using the ddCT method and normalized to reference gene, GAPDH or β-actin, with vehicle-treated samples serving as the calibrator (relative expression of vehicle control=1). C2C12 cells (American Type Culture Collection) were grown at 37° C. with 5% CO2 in growth media containing DMEM (Gibco) with 20% FBS (Sigma-Aldrich). Upon reaching confluency, the media was replaced with differentiation media containing DMEM with 2% horse serum (Sigma-Aldrich). Conditionally immortalized H2K mdx myoblast cells with a nonsense mutation in exon 23 of dystrophin were a gift from Terrance Partridge, Ph.D. (Children's National Medical Center, Washington, D.C.). Cells were allowed to proliferate on 0.01% gelatin (Sigma-Aldrich) coated plates at 33° C. with 5% CO2 with growth media containing DMEM, 20% HI-FBS (Invitrogen), 2% L-glutamine (Sigma-Aldrich), 2% chicken embryo extract (Accurate Chemical), 1% penicillin-streptomycin (Sigma-Aldrich), and 20U/ml of fresh interferon gamma (Gibco). For differentiation, H2K mdx myoblasts were seeded on plates coated with 0.1 mg/ml matrigel (Corning) diluted in DMEM and grown in proliferation conditions. […]
In general terms: Quantitative PCR measures a nucleic acid by following its amplification.

The next assay deals with mdx myotubes. Kind of assay: Fusion index in mdx myotubes. The conditions noted are these: mdx myotubes (FIG. 12c-d).
Assay [2] relates to hSSPN-EGFP myotubes (human sarcospan promoter reporter in C2C12). Kind of assay: hSSPN-EGFP reporter myotube assay (high-content imaging). The conditions noted are these: doses between 3.9 nm to 1 μM, 48 hours (FIG. 10a).

Each structure is given as a SMILES string.

Turning to `CCOC(=O)C1=C(C)NC(C)=C(C(=O)OC)C1c1cccc(Cl)c1Cl` (centres unmarked) [Felodipine, 5-O-ethyl 3-O-methyl 4-(2,3-dichlorophenyl)-2,6-dimethyl-1,4-dihydropyridine-3,5-dicarboxylate], the “fluorescence intensity over vehicle, primary screen hit call” value in assay [1] (primary screen of 3,200 molecules, 5.5 μM, 48 hours, n=1, hit cutoff 1.4-fold) was “hits”. In assay [1] (retest of screen hits at 5.5 μM, Plate 1, n=24 per plate), the “hSSPN-EGFP RFU, Plate 1” value amounted to 1.4 RFU. For the same compound, the “hSSPN-EGFP RFU, Plate 2” value in assay [1] (retest of screen hits at 5.5 μM, Plate 2, n=24 per plate) was 1.4 RFU. Besides, the “SSPN gene expression over vehicle” value with SSPN, sarcospan is “increases sarcospan gene expression”; in the assay on SSPN, sarcospan (listed as felodipine) it was “increase in SSPN gene expression”. Moreover, in the assay on SSPN, sarcospan (48h, normalized to GAPDH, n=2 (FIG. 11d)), the “SSPN gene expression relative to vehicle” value is listed as “only increased sarcospan levels”. The “fusion index (nuclei in myosin heavy chain positive area/total nuclei in field)” value in the assay with mdx myotubes is given as “does not increase fusion index”. For the same compound, the “hSSPN-EGFP reporter activity, counterscreen” value in assay [2] is reported as “increased activity”.
